Patent US11447525B2 (NIIGATA UNIVERSITY, priority 2018, dated 2022)
Blank lines part the entries; values can stand above or below the compound they belong to. Non-standard residues stand in square brackets, D forms with d. Residues, ends and D or L forms follow the SMILES beside them. No end group written: not given here. *: point of attachment. 5FAM = O=C1OC2(c3ccc(O)cc3Oc3cc(O)ccc32)c2ccc(C(=O)*)cc21; NMeR = CN[C@@H](CCCNC(=N)N)C(=O)O

Key:
[1] = tested on: pancreatic cancer cells (BxPC3, PK-8, AsPC1); assay: Accumulation of FLC-labeled peptides in cells (Test Example 8); assay type: cell-based, human; conditions: 2 μM, 37° C., 2 hours
Procedure: Tests were conducted to confirm the accumulation of various peptides into each of the cells shown below in Table 13. Further, the peptides shown below in Table 14 were used.
Each peptide was added to each of the cells shown in Table 13 in an amount sufficient to achieve a final concentration in the medium of 2 μM, and following cultivation of the cells at 37° C. for 2 hours, the sample was washed 3 times with a medium containing no peptide to remove any peptide within the medium. Subsequently, the incorporation of each of the peptides into each of the cells was evaluated visually using an inverted fluorescence microscope. Prior to the microscopic examination, the culture supernatant to which the peptide had been added was removed, and following washing three times with 1×PBS (−), a trypsin treatment was conducted to remove the adherent cells, and the resultant was immediately transferred into a new 96-well plate and once again suspended in fresh culture solution before the microscopic examination was performed. In FIG. 23, “pep(−)” indicates the control cells to which no peptide was administered, and “single PCPP11” indicates cells to which FLC (fluorescein)-PCPP11 had been added. Further, “mal” indicates a maleimide group, with the peptide and the FLC bonded together by forming a covalent bond between the thiol group (—SH) of a cysteine residue and a maleimide group introduced into the FLC.

[2] = tested on: human pancreatic cancer growth and progression mouse model (subcutaneous and intraperitoneal human pancreatic cancer cell-transplanted); assay: Selective absorption into tissues of human pancreatic cancer growth and progression mouse model, fluorescence signal (Test Examples 3, 4, Reference Example 2); assay type: in vivo, Balb/c nu/nu mouse; conditions: 200 μg intravenously, 30 minutes after injection
Procedure: Subsequently, 200 μg of each of the fluorescent labeled peptides prepared above in “1.” was injected intravenously into a human pancreatic cancer growth and progression mouse model (Balb/c nu/nu mouse, subcutaneous and intraperitoneal human pancreatic cancer cell-transplanted model). The pharmacokinetics of the peptide 30 minutes after the intravenous injection were then analyzed by tissue analysis of the freshly dissected specimen of the administered mouse, with the absorption quantified by detection of the fluorescence signal. […] In FIG. 9A, “sc tumor” is an abbreviation for “subcutaneous tumor”. In FIG. 9B, “abd tumor” is an abbreviation for “abdominal tumor”, indicating a tumor formed intraperitoneally. Further, “br” indicates the brain, “hr” indicates the heart, “kd” indicates the kidney, and “liv” indicates the liver. Furthermore, “liv. meta” is an abbreviation for “liver metastatic tumor”, and describes a tumor that has metastasized to the liver. Moreover, “panc” indicates the pancreas, and “sp” indicates the spleen. These same abbreviations are also used in subsequent figures. Furthermore, the term “untreated” in FIG. 9A indicates tissues resected from a mouse that was not administered with any fluorescent labeled peptide.
Specifically, first, either 27 μg or 200 μg of fluorescein was injected intravenously into a human pancreatic cancer growth and progression mouse model (Balb/c nu/nu mouse, subcutaneous and intraperitoneal human pancreatic cancer cell-transplanted model). The pharmacokinetics of the FLC 30 minutes after the intravenous injection were then analyzed by tissue analysis of the freshly dissected specimen of the administered mouse, with the absorption quantified by detection of the fluorescence signal.

[3] = Degradation test by human blood plasma, MALDI-TOFMS analysis; assay type: in vitro ADME; conditions: for proportion of each peptide when the peak area for the two or more peptides is deemed to be 100%: Ld peptide added to 50% by mass human blood plasma
Procedure: Specifically, a peptide composed of the amino acid sequence represented by SEQ ID NO: 1 (hereafter sometimes referred to as “PCPP11”) was added to human blood plasma having a concentration of 50% by mass, the mixture was sampled immediately after starting the degradation test (after 0 minutes), and then after 5 minutes, after 10 minutes, after 20 minutes, after 30 minutes, after 60 minutes and after 120 minutes, and the samples were analyzed by MALDI-TOFMS (Matrix Assisted Laser Desorption/Ionization-Time Of Flight Mass Spectrometry). In Table 2, “UK” is an abbreviation for “unknown”. Further, the No. shown for each peptide in Table 2 corresponds with the numerical value recorded on the peaks of the graphs shown in FIG. 1.
Each of the peptides described above was added to human blood plasma having a concentration of 50% by mass, the resulting mixture was sampled immediately after starting the degradation test (after 0 minutes), and then after 5 minutes, after 10 minutes, after 20 minutes, after 30 minutes, after 60 minutes and after 120 minutes, and the samples were analyzed by MALDI-TOFMS. The results are shown in FIGS. 2 to 6 and Tables 4 to 6 shown below. Furthermore, the data for the degradation test by human blood plasma using PCPP11 from Reference Example 1 and the degradation tests by human blood plasma using each of the above peptides are collated in FIG. 7 and Table 7. The SEQ ID NO listed for the FAM-labeled peptide represents the SEQ ID NO of the peptide portion. Further, the No. shown for each peptide in Tables 4 to 6 corresponds with the numerical value recorded on the peaks of the graphs shown in FIGS. 2 to 6. In each table, in those cases where the numerical values are shown separated into an upper row and a lower row, the upper row value indicates the proportion (%) of peak area for two or more peptides relative to the total peak area in the MALDI-TOFMS analysis. On the other hand, the lower row value indicates the proportion (%) of each peptide when the peak area for the two or more peptides is deemed to be 100%. Moreover, for example, for the peptide No. 9 shown in Table 4, the left-side “70.0%” indicates the proportion (%) of the peptide No. 9 when the total peak area for the peptides No. 9 to 11 is deemed to be 100%, whereas the right-side “65%” indicates the proportion (%) of the peptide No. 9 relative to the total peak area in the MALDI-TOFMS analysis. This system is also used in the following tables.

[4] = 50% by mass human blood plasma, 5 min, read-out: degradation resistance (proportion of the peptide retained without degradation)
[5] = 50% by mass human blood plasma, 10 min, read-out: degradation resistance (proportion of the peptide retained without degradation)
[6] = 50% by mass human blood plasma, 20 min, read-out: degradation resistance (proportion of the peptide retained without degradation)
[7] = 50% by mass human blood plasma, 30 min, read-out: degradation resistance (proportion of the peptide retained without degradation)
[8] = 50% by mass human blood plasma, 60 min, read-out: degradation resistance (proportion of the peptide retained without degradation)
[9] = 50% by mass human blood plasma, Start

inhibitory performance on nonspecific absorption into untargeted normal organs [2]: satisfactorily maintained
absorption into pancreatic malignant tumors compared with the conventional PCPP11 ([2]; FIG. 11): approximately 6 fold
Compound: C[C@@H](O)[C@H](NC(=O)[C@@H](NC(=O)[C@@H]1CCCN1C(=O)[C@H](CCCNC(=N)N)NC(=O)[C@H](CCCNC(=N)N)NC(=O)CNC(=O)[C@@H]1CCCN1C(=O)[C@H](CCCCN)NC(=O)[C@H](Cc1c[nH]cn1)NC(=O)[C@H](Cc1c[nH]c2ccccc12)NC(=O)[C@@H](NC(=O)[C@@H](NC(=O)[C@@H]1CCCN1C(=O)[C@H](CCCNC(=N)N)NC(=O)[C@H](CCCNC(=N)N)NC(=O)CNC(=O)[C@@H]1CCCN1C(=O)[C@H](CCCCN)NC(=O)[C@H](Cc1c[nH]cn1)NC(=O)[C@H](Cc1c[nH]c2ccccc12)NC(=O)[C@@H](NC(=O)[C@@H](NC(=O)[C@@H]1CCCN1C(=O)[C@H](CCCNC(=N)N)NC(=O)[C@H](CCCNC(=N)N)NC(=O)c1ccc2c(c1)C(=O)OC21c2ccc(O)cc2Oc2cc(O)ccc21)[C@@H](C)O)[C@@H](C)O)[C@@H](C)O)[C@@H](C)O)[C@@H](C)O)C(=O)N[C@@H](Cc1c[nH]c2ccccc12)C(=O)N[C@@H](Cc1c[nH]cn1)C(=O)N[C@@H](CCCCN)C(=O)N1CCC[C@H]1C(=O)O [FAM-LLL] (5FAM-RRPTTWHKPGRRPTTWHKPGRRPTTWHKP-OH; C-terminus assumed)

persistence time (the time of stable existence) ([3]; 50% by mass human blood plasma): less than 20 minutes
Compound: RRPTTWHKP [No. 1, reference compound]

degradation resistance compared with the stand-alone PCPP11 and the FAM-PCPP11 ([3]; 50% by mass human blood plasma): superior degradation resistance
Compound: C[C@@H](O)[C@H](NC(=O)[C@@H](NC(=O)[C@@H]1CCCN1C(=O)[C@H](CCCNC(=N)N)NC(=O)[C@H](CCCNC(=N)N)NC(=O)CNC(=O)[C@@H]1CCCN1C(=O)[C@H](CCCCN)NC(=O)[C@H](Cc1c[nH]cn1)NC(=O)[C@H](Cc1c[nH]c2ccccc12)NC(=O)[C@@H](NC(=O)[C@@H](NC(=O)[C@@H]1CCCN1C(=O)[C@H](CCCNC(=N)N)N(C)C(=O)[C@@H](N)CCCNC(=N)N)[C@@H](C)O)[C@@H](C)O)[C@@H](C)O)C(=O)N[C@@H](Cc1c[nH]c2ccccc12)C(=O)N[C@@H](Cc1c[nH]cn1)C(=O)N[C@@H](CCCCN)C(=O)N1CCC[C@H]1C(=O)O [No. 18] (H-R[NMeR]PTTWHKPGRRPTTWHKP-OH; N-terminus and C-terminus assumed)

remaining at 5 min [3, 4]: 100%
remaining at 10 min [3, 5]: 100%
remaining at 20 min [3, 6]: 100%
remaining at 0.5 h [3, 7]: 100%
remaining at 1 h [3, 8]: 100%
degradation resistance (proportion of the peptide retained without degradation) [3, 9]: 100%
Compound: RRPTTWHKPGRRPTTWHKPGRRPTTWHKP [compound 12]

Second part, the compound before the results:

Compound: [FLC]-R-mR-PTTWHKP-G-RRPTTWHKP [FLC-NmLL]
fluorescence compared with FLC-PCPP11 [1]: stronger fluorescence

Compound: C[C@H](O)[C@@H](NC(=O)[C@@H](Cc1c[nH]c2ccccc12)NC(=O)[C@@H](Cc1c[nH]cn1)NC(=O)[C@@H](CCCCN)NC(=O)[C@H]1CCCN1C(=O)CNC(=O)[C@@H]1CCCN1C(=O)[C@H](CCCCN)NC(=O)[C@H](Cc1c[nH]cn1)NC(=O)[C@H](Cc1c[nH]c2ccccc12)NC(=O)[C@@H](NC(=O)[C@@H](NC(=O)[C@@H]1CCCN1C(=O)[C@H](CCCNC(=N)N)N(C)C(=O)[C@@H](N)CCCNC(=N)N)[C@@H](C)O)[C@@H](C)O)C(=O)N[C@@H](C(=O)N1CCC[C@@H]1C(=O)N[C@H](CCCNC(=N)N)C(=O)N[C@H](CCCNC(=N)N)C(=O)O)[C@H](C)O [No. 19, R-mR-PTTWHKP-G-pkhwttprr] (H-R[NMeR]PTTWHKPG[dP][dK][dH][dW][dT][dT][dP][dR][dR]-OH; N-terminus and C-terminus assumed)
inhibitory performance on nonspecific absorption into untargeted normal organs [2]: maintained satisfactorily
absorption into pancreatic malignant tumors relative to the Ld peptide ([2]; FIG. 12B): approximately 1.4 fold
degradation resistance compared with the stand-alone PCPP11 and the FAM-PCPP11 ([3]; 50% by mass human blood plasma): superior degradation resistance
degradation products observed ([3]; 50% by mass human blood plasma, within 120 minutes of starting the test): no degradation products were observed

Compound: C[C@H](O)[C@@H](NC(=O)[C@@H](Cc1c[nH]c2ccccc12)NC(=O)[C@@H](Cc1c[nH]cn1)NC(=O)[C@@H](CCCCN)NC(=O)[C@H]1CCCN1C(=O)CNC(=O)[C@@H]1CCCN1C(=O)[C@H](CCCCN)NC(=O)[C@H](Cc1c[nH]cn1)NC(=O)[C@H](Cc1c[nH]c2ccccc12)NC(=O)[C@@H](NC(=O)[C@@H](NC(=O)[C@@H]1CCCN1C(=O)[C@H](CCCNC(=N)N)NC(=O)[C@@H](N)CCCNC(=N)N)[C@@H](C)O)[C@@H](C)O)C(=O)N[C@@H](C(=O)N1CCC[C@@H]1C(=O)N[C@H](CCCNC(=N)N)C(=O)N[C@H](CCCNC(=N)N)C(=O)O)[C@H](C)O [compound 15] (H-RRPTTWHKPG[dP][dK][dH][dW][dT][dT][dP][dR][dR]-OH; N-terminus and C-terminus assumed)
remaining at 5 min [3, 4]: 100%
remaining at 10 min [3, 5]: 100%
remaining at 20 min [3, 6]: 94%
remaining at 0.5 h [3, 7]: 84%
remaining at 1 h [3, 8]: 58%
remaining at 2 h ([3]; 50% by mass human blood plasma, 120 min, read-out: degradation resistance (proportion of the peptide retained without degradation)): 32%
degradation resistance (proportion of the peptide retained without degradation) [3, 9]: 100%
proportion of each peptide when the peak area for the two or more peptides is deemed to be 100% ([3]; 5 min): (89.0%)
proportion of each peptide when the peak area for the two or more peptides is deemed to be 100% ([3]; 10 min): (82.2%)
proportion of each peptide when the peak area for the two or more peptides is deemed to be 100% ([3]; 20 min): (71.9%)
proportion of each peptide when the peak area for the two or more peptides is deemed to be 100% ([3]; 30 min): (62.3%)
proportion of each peptide when the peak area for the two or more peptides is deemed to be 100% ([3]; 60 min): (43.0%)
proportion of each peptide when the peak area for the two or more peptides is deemed to be 100% ([3]; 120 min): (24.6%)
proportion of each peptide when the peak area for the two or more peptides is deemed to be 100% ([3]; Start): (96.9%)

Compound: RRPTTWHKP [Peptide 1]
remaining at 10 min [3, 5]: 67%
